Measured values as given in US6008233A, “(1S,2S)-1-(4-hydroxyphenyl)-2-(4- hydroxy-4-phenylipiperidin-1-yl)-1-propanolmethanesulfonate trihydrate” (Pfizer Inc, priority 1998, dated 1999).
Where a name gives a salt, the structure may show the parent alone.

Tests used:
[1] = Hygroscopicity at 0%, 52% and 98% controlled relative humidities and under ambient laboratory conditions; type: physicochemical
[2] = Bulk stability samples stored in polyethylene bags; type: physicochemical; conditions: 40° C./30% RH, 9 months
Procedure: Weight loss was also observed in bulk stability samples stored in polyethylene bags at 40° C./30% RH (>10% of weight was lost in 9 months).

[3] = Stability of crystalline form and shelf life compared to the anhydrous mesylate; type: physicochemical; conditions: compared with the corresponding anhydrous salt
hippocampal cells = experiment: Neuroprotective activity: glutamate toxicity in cultured fetal rat hippocampal cells (LDH release); type: cell-based; conditions: in words
Procedure: The preferred procedure for evaluating the neuroprotective activity of this compound is that described by Ismail A. Shalaby, et al., in J. Pharm. and Experimental Therapeutics, 260, 925 (1992). This article is incorporated herein by reference in its entirety and described below.
Cell culture. […]
Glutamate toxicity. The cultures are assessed for glutamate toxicity 2 to 3 weeks from initial plating. […]
Cell viability is routinely assessed 20 to 24 hours after the excitotoxin exposure by measuring the activity of the cytosolic enzyme LDH. LDH activity is determined from the culture medium of each of the 96 wells of the microtiter plates. […] The 340 nm absorbance of the total reaction mixture for each of the 96 wells is monitored every 5 sec for 2 min by an automated spectrophotometric microtiter plate reader (Molecular Devices; Menlo Park, Calif.). The rate of absorbance is automatically calculated using an IBM SOFTmax program (version 1.01; Molecular Devices) and is used as the index of LDH activity.
Morphological assessment of neuronal viability is determined using phrase contrast microscopy. […] Quantitatively, both culture platings are equally sensitive to glutamate toxicity, and display 2- to 3-fold increases in LDH activity 24 hours after exposure to 0.1 to 1.0 mM glutamate. […]

[4] = tested on: NMDA (N-methyl-D-aspartic acid) receptor; experiment: NMDA receptor antagonist activity; conditions: in words
[5] = Hygroscopicity at ambient conditions of the anhydrous mesylate salt (Table 3); type: physicochemical
Description: HYGROSCOPICITY AT AMBIENT CONDITIONS OF THE ANHYDROUS MESYLATE SALT

[6] = Equilibration of the anhydrous mesylate in an 81% RH environment; type: physicochemical; conditions: equilibrated in an 81% RH environment
Description: FIG. 1 depicts the X-ray powder diffraction spectrum of the mesylate trihydrate (taken on a Siemens D 5000 diffractometer after equilibration of the anhydrous mesylate at 81% relative humidity ("RH")), expressed as intensity (CPS) versus diffraction angle (two-theta degrees).

CC(C(O)c1ccc(O)cc1)N1CCC(O)(c2ccccc2)CC1 [mesylate salt trihydrate, (1S,2S)-1-(4-hydroxyphenyl)-2-(4-hydroxy-4-phenylpiperidin-1-yl)-1-propanol methanesulfonate trihydrate]
loss of waters of hydration ([1]; 0% RH): Loss of waters of hydration is observed | weight change ([1]; 52% RH): No weight change | weight change ([1]; 98% RH): No weight change | weight change ([1]; ambient laboratory conditions (24-27° C., 31-64% RH's)): No weight change | reversibility of weight loss observed at 0% RH ([1]; exposure to higher humidities after 0% RH): reversible | weight lost [2]: > 10% | breakdown of the crystal structure [3]: less subject to breakdown of the crystal structure | shelf life [3]: substantially longer shelf life | stability of crystalline form [3]: more stable crystalline form than the corresponding anhydrous salt | neuroprotective activity (hippocampal cells): possesses selective neuroprotective activity | activity as NMDA receptor antagonist [4]: exhibit activity as NMDA (N-methyl-D-aspartic acid) receptor antagonists

CC(C(O)c1ccc(O)cc1)N1CCC(O)(c2ccccc2)CC1 (centres unmarked) [anhydrous mesylate]
re-equilibration to the hydrated form ([1]; anhydrous form exposed to higher humidities): quickly equilibrated to the hydrated form | % Difference from Initial ([5]; 1 hours since initial): 0.06% | % Difference from Prev. Weighing ([5]; 1 hours since initial): 0.06% | Weight of Sample ([5]; 1 hours since initial): 0.4977 g | % Difference from Initial ([5]; 3.5 hours since initial): 0.06% | % Difference from Prev. Weighing ([5]; 3.5 hours since initial): 0.00% | Weight of Sample ([5]; 3.5 hours since initial): 0.4977 g | % Difference from Initial ([5]; 22 hours since initial): 0.32% | % Difference from Prev. Weighing ([5]; 22 hours since initial): 0.26% | Weight of Sample ([5]; 22 hours since initial): 0.4990 g | % Difference from Initial ([5]; 30.5 hours since initial): 0.56% | % Difference from Prev. Weighing ([5]; 30.5 hours since initial): 0.24% | Weight of Sample ([5]; 30.5 hours since initial): 0.5002 g | % Difference from Initial ([5]; 45.5 hours since initial): 1.93% | % Difference from Prev. Weighing ([5]; 45.5 hours since initial): 1.36% | Weight of Sample ([5]; 45.5 hours since initial): 0.5070 g | % Difference from Initial ([5]; 98 hours since initial): 2.57% | % Difference from Prev. Weighing ([5]; 98 hours since initial): 0.63% | Weight of Sample ([5]; 98 hours since initial): 0.5102 g | % Difference from Initial ([5]; 170 hours since initial): 3.94% | % Difference from Prev. Weighing ([5]; 170 hours since initial): 1.33% | Weight of Sample ([5]; 170 hours since initial): 0.5170 g | % Difference from Initial ([5]; 194 hours since initial): 3.94% | % Difference from Prev. Weighing ([5]; 194 hours since initial): 0.00% | Weight of Sample ([5]; 194 hours since initial): 0.5170 g | % Difference from Initial ([5]; 215 hours since initial): 3.96% | % Difference from Prev. Weighing ([5]; 215 hours since initial): 0.02% | Weight of Sample ([5]; 215 hours since initial): 0.5171 g | % Difference from Initial ([5]; 246 hours since initial): 4.22% | % Difference from Prev. Weighing ([5]; 246 hours since initial): 0.25% | Weight of Sample ([5]; 246 hours since initial): 0.5184 g | % Difference from Initial ([5]; 382 hours since initial): 4.60% | % Difference from Prev. Weighing ([5]; 382 hours since initial): 0.37% | Weight of Sample ([5]; 382 hours since initial): 0.5203 g | % Difference from Initial ([5]; 408 hours since initial): 4.40% | % Difference from Prev. Weighing ([5]; 408 hours since initial): -0.19% | Weight of Sample ([5]; 408 hours since initial): 0.5193 g | % Difference from Initial ([5]; 533 hours since initial): 4.40% | % Difference from Prev. Weighing ([5]; 533 hours since initial): 0.00% | Weight of Sample ([5]; 533 hours since initial): 0.5193 g | Weight of Sample ([5]; initial): 0.4974 g | weight gain at ambient conditions ([5]; summary in words): substantial weight gain | conversion to the mesylate salt trihydrate [6]: will convert to the mesylate salt trihydrate

C[C@@H]([C@@H](O)c1ccc(O)cc1)N1CCC(O)(c2ccccc2)CC1 [free base, (1S,2S)-1-(4-hydroxyphenyl)-2-(4-hydroxy-4-phenylpiperidin-1-yl)-1-propanol]
neuroprotective activity (hippocampal cells): possesses selective neuroprotective activity | activity as NMDA receptor antagonist [4]: exhibit activity as NMDA (N-methyl-D-aspartic acid) receptor antagonists
